Source: US10758534B2 (Vertex Pharmaceuticals Incorporated, priority 2014, dated 2020)

Biological target: T1, F508del (Homo sapiens, UniProt P13569, DEL508-508)
T1 construct: expressed in transfected cells
Test: Protocol 2: FRET membrane potential optical assay (VIPR), identification of correction compounds
Assay type: cell-based
Conditions: F508del CFTR modulator activity; compounds of Table 1; read-out: EC30
Procedure, shortened: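 FRET read-out (CC2-DMPE donor, DiSBAC2(3) voltage-sensitive acceptor) of membrane depolarization on VIPR II. Corrector candidates incubated 16 hrs at 37° C. with NIH3T3 cells expressing F508del; temperature correction at 27° C. as positive control; stimulation by 10 μM forskolin, 20 μM genistein, chloride-free gluconate bath.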

T1 sequence (P13569 with tags, fused parts or gaps DEL508-508): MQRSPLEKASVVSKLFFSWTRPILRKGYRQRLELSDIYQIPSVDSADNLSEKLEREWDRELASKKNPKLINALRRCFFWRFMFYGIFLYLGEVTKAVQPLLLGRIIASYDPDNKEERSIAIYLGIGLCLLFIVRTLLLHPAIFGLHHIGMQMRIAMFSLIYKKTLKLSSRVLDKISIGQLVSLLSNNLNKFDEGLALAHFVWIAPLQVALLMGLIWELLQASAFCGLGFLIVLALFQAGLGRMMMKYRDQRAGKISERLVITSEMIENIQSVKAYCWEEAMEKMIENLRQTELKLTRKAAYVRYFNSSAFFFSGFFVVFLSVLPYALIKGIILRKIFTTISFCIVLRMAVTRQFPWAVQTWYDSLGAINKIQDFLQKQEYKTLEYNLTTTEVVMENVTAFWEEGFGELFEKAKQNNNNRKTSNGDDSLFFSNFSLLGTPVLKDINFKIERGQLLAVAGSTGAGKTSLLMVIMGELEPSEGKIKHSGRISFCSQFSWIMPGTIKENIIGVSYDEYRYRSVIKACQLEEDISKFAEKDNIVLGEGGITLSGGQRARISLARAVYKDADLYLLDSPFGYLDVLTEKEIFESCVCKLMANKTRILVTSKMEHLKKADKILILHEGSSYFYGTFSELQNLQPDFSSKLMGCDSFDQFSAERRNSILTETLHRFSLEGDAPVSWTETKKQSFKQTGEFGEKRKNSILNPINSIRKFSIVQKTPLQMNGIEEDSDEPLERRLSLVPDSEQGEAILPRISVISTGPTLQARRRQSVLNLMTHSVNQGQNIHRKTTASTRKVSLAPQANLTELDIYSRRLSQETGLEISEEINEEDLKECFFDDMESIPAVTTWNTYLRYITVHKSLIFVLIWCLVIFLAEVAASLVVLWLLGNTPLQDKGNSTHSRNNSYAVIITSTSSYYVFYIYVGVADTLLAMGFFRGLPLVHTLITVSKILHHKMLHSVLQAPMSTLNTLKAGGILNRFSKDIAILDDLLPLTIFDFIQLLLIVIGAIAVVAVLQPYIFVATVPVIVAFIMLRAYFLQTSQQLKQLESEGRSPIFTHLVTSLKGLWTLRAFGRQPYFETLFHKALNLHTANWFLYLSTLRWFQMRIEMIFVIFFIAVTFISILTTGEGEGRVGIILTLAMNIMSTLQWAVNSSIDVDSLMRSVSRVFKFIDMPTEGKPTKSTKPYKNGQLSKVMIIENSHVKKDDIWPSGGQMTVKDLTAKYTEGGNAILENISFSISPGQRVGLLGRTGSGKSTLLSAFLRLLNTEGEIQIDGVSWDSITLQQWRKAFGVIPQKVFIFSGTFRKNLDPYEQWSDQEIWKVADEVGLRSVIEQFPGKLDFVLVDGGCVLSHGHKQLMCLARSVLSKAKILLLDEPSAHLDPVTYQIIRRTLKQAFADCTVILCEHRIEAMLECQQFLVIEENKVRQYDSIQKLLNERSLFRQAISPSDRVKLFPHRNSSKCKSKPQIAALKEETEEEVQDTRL

Question: For `C[C@@H]1CN(c2nc(C3CCCCO3)ccc2C(=O)NS(=O)(=O)c2cccnc2N)C(C)(C)C1` (single isomer, unassigned) [Compound 2672], which EC30 is on record?
Answer: < 3000 nM

Question: How did the EC30 turn out when `CC1CN(c2ncccc2C(=O)NS(=O)(=O)c2cccc(N3CCCC(Cc4ccccc4)C3)n2)C(C)(C)C1` (stereo not drawn) [Compound 2297, N—[[6-(3-benzyl-1-piperidyl)-2-pyridyl]sulfonyl]-2-(2,2,4-trimethylpyrrolidin-1-yl)pyridine-3-carboxamide] was run?
Answer: < 3000 nM

Question: Which EC30 does the source give for `COc1cc(F)cc(-c2ccc(C(=O)NS(=O)(=O)c3ccc[nH]c3=O)c(N3C[C@@H](C)CC3(C)C)n2)c1` [Compound 2527, 6-(3-fluoro-5-methoxy-phenyl)-N-[(2-oxo-1H-pyridin-3-yl)sulfonyl]-2-[(4S)-2,2,4-trimethylpyrrolidin-1-yl]pyridine-3-carboxamide] here?
Answer: < 3000 nM

Question: With `C[C@@H]1CN(c2nc(-c3cc(F)ccc3F)ccc2C(=O)NS(=O)(=O)c2cccnc2N)C(C)(C)C1` [Compound 2105, N-[(2-amino-3-pyridyl)sulfonyl]-6-(2,5-difluorophenyl)-2-[(4S)-2,2,4-trimethylpyrrolidin-1-yl]pyridine-3-carboxamide] as the compound, how does the EC30 read?
Answer: < 3000 nM

Question: Which EC30 does the source give for `COc1ncc(-c2ccc(C(=O)NS(=O)(=O)c3cccc(N)n3)c(N3C[C@@H](C)CC3(C)C)n2)cc1C` [Compound 2086, N-[(6-amino-2-pyridyl)sulfonyl]-6-(6-methoxy-5-methyl-3-pyridyl)-2-[(4S)-2,2,4-trimethylpyrrolidin-1-yl]pyridine-3-carboxamide] here?
Answer: < 3000 nM

Question: Which EC30 does the source give for `C[C@@H]1CN(c2nc(-c3ccc4c(c3)OCCO4)ccc2C(=O)NS(=O)(=O)c2ccc[nH]c2=O)C(C)(C)C1` [Compound 2516, 6-(2,3-dihydro-1,4-benzodioxin-6-yl)-N-[(2-oxo-1H-pyridin-3-yl)sulfonyl]-2-[(4S)-2,2,4-trimethylpyrrolidin-1-yl]pyridine-3-carboxamide] here?
Answer: 3000 to 10000 nM

Same assay, conditions: Table 3; compounds of Table 1 as modulators of CFTR activity; protocol not stated

Question: Which EC30 does the source give for `Cc1cc(C)c(Oc2nc(-c3ccc(C(C)C)cc3)ccc2C(=O)NS(=O)(=O)c2cccc(N)n2)c(C)c1` [Compound 164, N-[(6-amino-2-pyridyl)sulfonyl]-6-(4-isopropylphenyl)-2-(2,4,6-trimethylphenoxy)pyridine-3-carboxamide] here?
Answer: +++ (“+++” means <3 uM)

Question: `COC(=O)C(C)Oc1ccc(-c2ccc(C(=O)NS(=O)(=O)c3cccc(N)n3)c(N3[C@H](C)CC[C@@H]3C)n2)cn1` (stereo partly drawn) [Compound 723, methyl 2-[[5-[5-[(6-amino-2-pyridyl)sulfonylcarbamoyl]-6-[(2S,5R)-2,5-dimethylpyrrolidin-1-yl]-2-pyridyl]-2-pyridyl]oxy]propanoate] was tested. Which EC30 did it give?
Answer: ++ (“++” means between 3 uM and 10 uM)

Question: With `CC(C)Oc1ccc(-c2ccc(C(=O)NS(=O)(=O)c3ccn[nH]3)c(N3C[C@H](C)C[C@H](C)C3)n2)cn1` [Compound 446, 2-[(3R,5S)-3,5-dimethyl-1-piperidyl]-6-(6-isopropoxy-3-pyridyl)-N-(1H-pyrazol-5-ylsulfonyl)pyridine-3-carboxamide] as the compound, how does the EC30 read?
Answer: +++ (“+++” means <3 uM)

Question: `CC1CCCN(c2nc(-c3ccc(OC(C)C)nc3)ccc2C(=O)NS(=O)(=O)c2cccc(N)n2)C1` (stereo not drawn) [Compound 321, N-[(6-amino-2-pyridyl)sulfonyl]-6-(6-isopropoxy-3-pyridyl)-2-(3-methyl-1-piperidyl)pyridine-3-carboxamide] was tested. Which EC30 did it give?
Answer: +++ (“+++” means <3 uM)

Question: `Cc1cc(C)c(Oc2nc(-c3ccccc3C(C)(C)C)ccc2C(=O)NS(=O)(=O)c2cccc(N)n2)c(C)c1` [Compound 364, N-[(6-amino-2-pyridyl)sulfonyl]-6-(2-tert-butylphenyl)-2-(2,4,6-trimethylphenoxy)pyridine-3-carboxamide] was tested. Which EC30 did it give?
Answer: +-F+

Question: `Cc1cc(C)c(Oc2nc(-c3ccccc3)ccc2C(=O)NS(=O)(=O)c2cccc(N)n2)c(C)c1` [Compound 203, N-[(6-amino-2-pyridyl)sulfonyl]-6-phenyl-2-(2,4,6-trimethylphenoxy)pyridine-3-carboxamide] was tested. Which EC30 did it give?
Answer: +++ (“+++” means <3 uM)
